Consider one compound from paper PMC11031590, “Narazaciclib, a novel multi-kinase inhibitor with potent activity against CSF1R, FLT3 and CDK6, shows strong anti-AML activity in defined preclinical models” (Scientific Reports, 2024).

Each structure is given as a SMILES string.

The target of assay [1] is CDK6-CyclinD1 (Homo sapiens, UniProt Q00534). The assay can be described thus: CDK6 TR-FRET kinase assay. The class given is biochemical. To be noted: ATP 250 µM; read-out: IC50 CDK6 enzymatic activity. The procedure:
For CDK6 inhibition, a Time-resolved fluorescence energy transfer (TR-FRET) kinase assay was performed according to the manufacturer’s instructions. Briefly, narazaciclib at various concentrations was pre-incubated with CDK6-CyclinD1 in kinase buffer at 25 °C for 1 h and then incubated with 12.5 nM Ulight-4E-BP1 peptide and 250 µM ATP at 25 °C for 2 h. The reaction was stopped by incubating with EDTA-containing stop buffer at 25 °C for 5 min. Subsequently, the mixture was incubated with detection buffer at 25 °C for 1 h. Finally, the signal was read on a Nivo Reader in TR-FRET mode (excitation at 320 nm and emission at 665 nm and 615 nm). The signal of the blank control was subtracted from the maximum signal (DMSO without compound) as well as from the value of narazaciclib at each concentration. This corrected emission ratio (ER) was used to calculate the percentage of enzyme activity recovery: enzyme activity recovery (%) = [(narazaciclib ER – blank control ER)[…]] × 100. The results were fitted to a dose–response curve by a 4-parameter log-logistic model: Inhibition%=Bottom+Top-Bottom/1+10^logEC50-x∗HillSlope

The test system of assay [2] is AM7577 AML-PDX. The assay can be described thus: AM7577 systemic AML-PDX model. In kind it is in vivo, NOD/scid mice. The method, then:
For systemic AML-PDX models, the model establishment and narazaciclib pharmacology experiment were performed essentially as described previously. Briefly, 2 × 10^6 AM7407 cells, or 2 × 10^6 AM7577 cells, or 2 × 10^6 AM5512 cells, or 1.65 × 10^6 AM8096 cells were inoculated intravenously into 4- to 5-week-old female NOD/scid mice for AML development. Engraftment was confirmed by the presence of circulating human CD45+ cells (anti-human CD45 antibody, Cat. 304038, Biolegend) in peripheral blood. Mice with successful engraftment of AML-PDX were randomized into different treatment groups (N = 6) and received their designated treatments. Narazaciclib was administrated orally or intraperitoneally at 10 mg/kg, or 30 mg/kg, or 100 mg/kg every day throughout the study, while Cytarabine was administrated intraperitoneally at 3 mg/kg every day. Following the initiation of designated treatments, leukemic burden was monitored by flow cytometry with anti-human CD45 antibody on the peripheral blood every week as well as on the peripheral blood, bone marrow cells and splenocytes of mice at sacrifice. Mice were sacrifice once the followings are observed: body weight loss over 20%, reduced motility and activity, labored breathing, ruffled coat, hunched back and severe dehydration.

Assay [3] addresses SIK2 (Homo sapiens, UniProt Q9H0K1). The assay can be described thus: Additional kinase inhibition panel. The class given is biochemical. The text has this:
(§1) Supplement 41598_2024_59650_MOESM2_ESM.docx, table 4: Supplemental Table S4. IC50 of Narazaciclib against additional kinases | column: Narazaciclib (µM); Narazaciclib metabolite (µM)

Assay [4] deals with SIK1 (Homo sapiens, UniProt P57059). The assay can be described thus: Additional kinase inhibition panel. The class given is biochemical.
SIK1, sequence (P57059 whole entry): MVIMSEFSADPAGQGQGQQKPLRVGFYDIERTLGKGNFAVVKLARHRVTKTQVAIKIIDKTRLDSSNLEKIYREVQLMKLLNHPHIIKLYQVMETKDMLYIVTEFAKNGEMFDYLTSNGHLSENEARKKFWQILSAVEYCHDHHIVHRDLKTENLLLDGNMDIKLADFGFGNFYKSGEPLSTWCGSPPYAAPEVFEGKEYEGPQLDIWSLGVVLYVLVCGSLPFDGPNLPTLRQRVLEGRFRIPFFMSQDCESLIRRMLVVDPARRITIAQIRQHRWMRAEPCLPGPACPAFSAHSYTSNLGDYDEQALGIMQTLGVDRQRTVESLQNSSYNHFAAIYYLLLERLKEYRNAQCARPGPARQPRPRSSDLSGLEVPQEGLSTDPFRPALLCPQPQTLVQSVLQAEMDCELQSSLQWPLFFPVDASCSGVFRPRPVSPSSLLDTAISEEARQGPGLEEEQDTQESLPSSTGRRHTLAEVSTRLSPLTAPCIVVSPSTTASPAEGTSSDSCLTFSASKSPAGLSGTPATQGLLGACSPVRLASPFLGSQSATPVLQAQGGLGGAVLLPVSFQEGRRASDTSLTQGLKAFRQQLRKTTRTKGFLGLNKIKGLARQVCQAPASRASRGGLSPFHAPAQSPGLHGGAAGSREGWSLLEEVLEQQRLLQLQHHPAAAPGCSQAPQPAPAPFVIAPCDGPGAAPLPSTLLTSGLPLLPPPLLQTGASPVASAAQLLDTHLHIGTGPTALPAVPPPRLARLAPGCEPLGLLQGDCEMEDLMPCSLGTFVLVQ
Text: as §1

Assay [5] concerns the target PDGFRβ (Homo sapiens, UniProt P09619). Kind of assay: Additional kinase inhibition panel. The class given is biochemical.
Text: as §1

The target of assay [6] is FGFR1 (Homo sapiens, UniProt P11362). The assay can be described thus: Additional kinase inhibition panel. In kind it is biochemical.
Text: as §1

Assay [7] has as its target PDGFRα (Homo sapiens, UniProt P16234). Kind of assay: Additional kinase inhibition panel. In kind it is biochemical.
Text: as §1

The target of assay [8] is FGFR4 (Homo sapiens, UniProt P22455). Kind of assay: Additional kinase inhibition panel. The class given is biochemical.
FGFR4, sequence (P22455 22-802): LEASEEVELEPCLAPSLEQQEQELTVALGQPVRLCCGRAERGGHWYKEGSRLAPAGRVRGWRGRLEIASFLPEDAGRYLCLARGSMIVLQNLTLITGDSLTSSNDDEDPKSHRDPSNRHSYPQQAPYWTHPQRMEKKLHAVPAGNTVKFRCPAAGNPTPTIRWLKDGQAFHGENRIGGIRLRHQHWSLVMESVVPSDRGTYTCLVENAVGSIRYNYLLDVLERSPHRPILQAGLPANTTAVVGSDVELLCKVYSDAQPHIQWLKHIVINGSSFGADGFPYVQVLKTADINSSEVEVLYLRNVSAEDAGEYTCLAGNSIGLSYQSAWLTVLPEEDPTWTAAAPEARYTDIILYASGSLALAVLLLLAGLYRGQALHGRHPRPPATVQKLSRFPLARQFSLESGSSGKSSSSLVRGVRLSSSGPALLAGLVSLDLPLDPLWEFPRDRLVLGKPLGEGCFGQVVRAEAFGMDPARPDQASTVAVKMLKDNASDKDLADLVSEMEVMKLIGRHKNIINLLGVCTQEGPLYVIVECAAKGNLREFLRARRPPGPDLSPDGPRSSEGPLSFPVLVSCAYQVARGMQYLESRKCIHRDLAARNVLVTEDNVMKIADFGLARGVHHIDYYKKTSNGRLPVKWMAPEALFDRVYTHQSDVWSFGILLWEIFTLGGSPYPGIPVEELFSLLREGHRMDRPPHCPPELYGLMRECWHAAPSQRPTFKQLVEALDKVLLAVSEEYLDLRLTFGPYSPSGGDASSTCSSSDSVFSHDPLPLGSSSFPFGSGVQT
Text: as §1

The target in assay [9] is SIK3 (Homo sapiens, UniProt Q9Y2K2). Kind of assay: Additional kinase inhibition panel. In kind it is biochemical.
Text: as §1

Assay [10] has as its target FGFR3 (Homo sapiens, UniProt P22607). The assay can be described thus: Additional kinase inhibition panel. The class given is biochemical.
Text: as §1

Assay [11] concerns the target CDK9 (Homo sapiens, UniProt P50750). The assay can be described thus: Additional kinase inhibition panel. In kind it is biochemical.
Text: as §1

Assay [12] addresses C-Kit (Homo sapiens, UniProt P10721). Kind of assay: Additional kinase inhibition panel. In kind it is biochemical.
Text: as §1

The target of assay [13] is ABL-1 (Homo sapiens, UniProt P00519). The assay can be described thus: Additional kinase inhibition panel. The class given is biochemical.
Text: as §1

The target in assay [14] is RET (Homo sapiens, UniProt P07949). The assay can be described thus: Additional kinase inhibition panel. In kind it is biochemical.
Text: as §1

The target of assay [15] is FGFR2 (Homo sapiens, UniProt P21802). Kind of assay: Additional kinase inhibition panel. In kind it is biochemical.
Text: as §1

Assay [16] concerns Ba/F3-FLT3-ITD (D835F). The assay can be described thus: Ba/F3-FLT3-ITD (D835F) proliferation assay. The class given is cell-based, mouse. The procedure: (§2) The recombinant Ba/F3 cell lines overexpressing human CSF1R, or human RBM6-CSF1R, or human ETV6-CSF1R were generated using a retrovirus vector (Kyinno Co., Ltd. Beijing). The recombinant Ba/F3 lines overexpressing human Kras G12C orEGFR-L718Q mutants, and different mutant variants of FLT3 were also similarly created as well. A standard proliferation assay via CTG readout was performed according to the vendor’s instructions (KYinno Biotechnology Co., Ltd. Beijing).

For assay [17], the system named is Ba/F3-FLT3-N701K. Kind of assay: Ba/F3-FLT3-N701K proliferation assay. The class given is cell-based, mouse. The procedure:
as §2

FGFR3, sequence (P22607 23-806): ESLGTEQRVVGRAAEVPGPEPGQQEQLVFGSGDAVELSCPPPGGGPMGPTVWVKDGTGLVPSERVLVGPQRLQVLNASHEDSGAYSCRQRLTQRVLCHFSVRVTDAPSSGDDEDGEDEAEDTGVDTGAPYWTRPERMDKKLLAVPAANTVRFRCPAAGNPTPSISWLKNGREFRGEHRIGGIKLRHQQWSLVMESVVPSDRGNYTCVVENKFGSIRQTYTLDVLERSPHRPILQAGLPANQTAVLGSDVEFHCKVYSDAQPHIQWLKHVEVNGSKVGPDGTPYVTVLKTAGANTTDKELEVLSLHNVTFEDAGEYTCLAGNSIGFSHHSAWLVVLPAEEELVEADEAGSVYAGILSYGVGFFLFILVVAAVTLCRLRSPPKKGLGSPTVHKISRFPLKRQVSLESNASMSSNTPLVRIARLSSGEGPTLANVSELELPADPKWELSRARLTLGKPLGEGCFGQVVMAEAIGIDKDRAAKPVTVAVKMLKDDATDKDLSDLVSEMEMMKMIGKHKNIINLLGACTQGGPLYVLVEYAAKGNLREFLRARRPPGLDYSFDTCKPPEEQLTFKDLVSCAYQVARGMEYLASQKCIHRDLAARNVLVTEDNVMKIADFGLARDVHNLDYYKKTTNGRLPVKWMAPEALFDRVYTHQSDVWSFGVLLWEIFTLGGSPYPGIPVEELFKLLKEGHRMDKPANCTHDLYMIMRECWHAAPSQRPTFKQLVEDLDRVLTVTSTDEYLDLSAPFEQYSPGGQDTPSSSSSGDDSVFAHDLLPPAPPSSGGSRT
SIK2, sequence (Q9H0K1 whole entry): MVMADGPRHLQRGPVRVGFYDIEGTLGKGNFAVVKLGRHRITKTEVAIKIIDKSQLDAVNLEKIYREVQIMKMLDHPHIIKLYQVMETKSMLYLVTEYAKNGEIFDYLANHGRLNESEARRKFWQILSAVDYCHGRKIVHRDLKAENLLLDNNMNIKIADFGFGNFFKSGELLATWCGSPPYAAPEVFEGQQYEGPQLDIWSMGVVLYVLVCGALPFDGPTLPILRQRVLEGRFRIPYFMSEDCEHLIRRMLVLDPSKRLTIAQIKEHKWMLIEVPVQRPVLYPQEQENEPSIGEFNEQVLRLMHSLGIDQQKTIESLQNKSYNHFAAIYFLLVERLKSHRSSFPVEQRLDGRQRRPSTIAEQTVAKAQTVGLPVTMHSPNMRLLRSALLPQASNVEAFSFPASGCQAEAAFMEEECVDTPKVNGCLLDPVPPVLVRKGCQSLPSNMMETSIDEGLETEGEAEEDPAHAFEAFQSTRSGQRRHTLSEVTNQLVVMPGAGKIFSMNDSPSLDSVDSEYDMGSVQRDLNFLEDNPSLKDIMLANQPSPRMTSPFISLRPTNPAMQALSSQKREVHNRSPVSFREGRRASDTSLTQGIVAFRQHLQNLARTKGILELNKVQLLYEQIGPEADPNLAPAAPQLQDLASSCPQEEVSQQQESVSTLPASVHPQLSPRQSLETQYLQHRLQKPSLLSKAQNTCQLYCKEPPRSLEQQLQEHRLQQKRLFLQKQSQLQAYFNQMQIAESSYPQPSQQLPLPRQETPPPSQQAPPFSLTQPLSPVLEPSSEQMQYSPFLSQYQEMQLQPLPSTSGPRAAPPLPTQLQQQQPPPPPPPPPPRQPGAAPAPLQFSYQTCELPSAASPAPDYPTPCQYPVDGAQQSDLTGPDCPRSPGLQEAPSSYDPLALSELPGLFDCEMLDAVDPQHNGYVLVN
PDGFRβ, sequence (P09619 33-1106): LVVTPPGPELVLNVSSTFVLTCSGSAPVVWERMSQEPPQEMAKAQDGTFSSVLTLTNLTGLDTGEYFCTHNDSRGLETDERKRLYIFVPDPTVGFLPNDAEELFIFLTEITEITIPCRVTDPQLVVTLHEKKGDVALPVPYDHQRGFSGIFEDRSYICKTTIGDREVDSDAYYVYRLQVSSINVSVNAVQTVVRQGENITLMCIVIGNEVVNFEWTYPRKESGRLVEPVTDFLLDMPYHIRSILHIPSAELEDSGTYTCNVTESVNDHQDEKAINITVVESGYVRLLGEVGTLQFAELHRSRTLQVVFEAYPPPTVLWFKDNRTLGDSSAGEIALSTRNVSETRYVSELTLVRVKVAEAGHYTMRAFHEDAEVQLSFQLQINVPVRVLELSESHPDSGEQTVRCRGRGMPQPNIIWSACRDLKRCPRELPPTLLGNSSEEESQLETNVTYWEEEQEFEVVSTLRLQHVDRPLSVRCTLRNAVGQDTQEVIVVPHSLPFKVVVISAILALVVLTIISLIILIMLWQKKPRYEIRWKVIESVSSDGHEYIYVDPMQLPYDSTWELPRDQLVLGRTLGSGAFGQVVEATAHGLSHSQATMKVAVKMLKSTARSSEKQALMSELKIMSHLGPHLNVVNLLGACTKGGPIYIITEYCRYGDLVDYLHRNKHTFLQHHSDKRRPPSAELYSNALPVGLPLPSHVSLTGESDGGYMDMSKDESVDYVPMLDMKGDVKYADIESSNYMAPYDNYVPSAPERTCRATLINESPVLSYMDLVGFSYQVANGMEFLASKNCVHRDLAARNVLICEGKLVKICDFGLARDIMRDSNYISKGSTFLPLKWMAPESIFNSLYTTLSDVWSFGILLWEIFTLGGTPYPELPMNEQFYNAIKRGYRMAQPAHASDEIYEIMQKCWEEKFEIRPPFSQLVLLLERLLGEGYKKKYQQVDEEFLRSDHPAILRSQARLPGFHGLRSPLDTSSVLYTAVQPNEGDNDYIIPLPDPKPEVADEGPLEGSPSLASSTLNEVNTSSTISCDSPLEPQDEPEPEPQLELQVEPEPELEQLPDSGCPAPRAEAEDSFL
CDK6-CyclinD1, sequence (Q00534 whole entry): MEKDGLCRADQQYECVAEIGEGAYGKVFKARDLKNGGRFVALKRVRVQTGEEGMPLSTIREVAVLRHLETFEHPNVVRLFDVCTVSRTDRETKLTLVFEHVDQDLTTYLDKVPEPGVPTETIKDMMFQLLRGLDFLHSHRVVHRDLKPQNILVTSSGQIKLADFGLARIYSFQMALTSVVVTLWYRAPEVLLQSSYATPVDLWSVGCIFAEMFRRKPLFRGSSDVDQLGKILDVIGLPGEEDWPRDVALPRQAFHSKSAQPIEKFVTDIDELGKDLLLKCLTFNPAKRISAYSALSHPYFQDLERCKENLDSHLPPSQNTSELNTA
CDK6-CyclinD1, sequence (P24385 whole entry partner): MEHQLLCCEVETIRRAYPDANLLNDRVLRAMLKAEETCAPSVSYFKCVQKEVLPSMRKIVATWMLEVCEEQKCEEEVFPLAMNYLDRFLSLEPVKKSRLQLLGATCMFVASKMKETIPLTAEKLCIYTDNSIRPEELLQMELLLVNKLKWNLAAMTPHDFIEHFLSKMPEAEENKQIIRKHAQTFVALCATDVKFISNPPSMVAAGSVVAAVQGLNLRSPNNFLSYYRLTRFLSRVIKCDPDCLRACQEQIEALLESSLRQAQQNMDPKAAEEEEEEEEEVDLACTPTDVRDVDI

What is called IC50 is the midpoint of a concentration-inhibition curve. As to `CN1CCN(c2ccc(Nc3ncc4cc(C#N)c(=O)n(C5CCCC5)c4n3)cc2)CC1` [Narazaciclib, narazaciclib], the IC50 in [1] turned out to be 0.53 nM; in [3], 2 nM; in assay [4], 34 nM; in assay [5], 10 nM; in assay [6] it was 38 nM; in [7] it was 104 nM. Besides, the half-maximal inhibitory concentration (IC50) in assay [8] came out at 2740 nM; in assay [9] it was 24 nM; in [10] it was 187 nM; in assay [11], 28 nM; in assay [12], 9 nM; in [13], 38 nM. The IC50 was determined as 16 nM in [14], 20 nM in assay [15], 69.6 nM in assay [16] (Mus musculus) and 396 nM in assay [17] (Mus musculus). The “leukemic load in peripheral blood” value in assay [2] (100 mg/kg orally every day) was “completely diminished the leukemic load in peripheral blood”. For the same compound, the “leukemic load in peripheral blood, spleen and bone marrow” value in assay [2] (AM7577) is “reduce the leukemic load in peripheral blood and spleen, but also the leukemic load in bone marrow”. Moreover, the “leukemic burdens in spleen and bone marrow” value in assay [2] (AM7577, 100 mg/kg) was “significantly reduced the leukemic burdens in both spleen and bone marrow”. The “leukemic burdens, dose dependence” value in assay [2] (AM7577, different dose levels) is recorded as “reduced the leukemic burdens in a dose-dependent manner”. The “% of Ba/F3-FLT3 (IC50)” value came out at 23.10% in [16] and 131.40% in assay [17].
